Data reported in patent US12077503B2, “Substituted cyclic amides and their use as herbicides” (FMC CORPORATION, priority 2015, dated 2024).

Legend:
Assay type in all cases: in vivo
Kochia (Kochia scoparia) [1] = experiment: Test A preemergence
Method in brief: (§1)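 Treatment is preemergence as a directed soil spray after planting, or postemergence at the one- to two-leaf stage, with test chemical in a non-phytotoxic solvent mixture plus surfactant. Plants stay in the greenhouse about 10 d before visual injury scoring on a 0 to 100 scale versus untreated controls.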

[2] = tested on: giant foxtail (Setaria faberii); experiment: Test A preemergence
Method in brief: as §1

[3] = tested on: ragweed (common ragweed, Ambrosia elatior); experiment: Test A preemergence
Method in brief: as §1

[4] = tested on: pigweed (Amaranthus retroflexus); experiment: Test A preemergence
[5] = tested on: barnyardgrass (Echinochloa crus-galli); experiment: Test A preemergence
Method in brief: as §1

[6] = tested on: ryegrass, Italian (Italian ryegrass, Lolium multiflorum); experiment: Test A preemergence
Method in brief: as §1

corn (Zea mays) = experiment: Test A postemergence; conditions: postemergence, 0 to 100 scale (0 no effect, 100 complete control)
Method in brief: as §1

[7] = tested on: wheat (Triticum aestivum); experiment: Test A postemergence; conditions: postemergence, 0 to 100 scale (0 no effect, 100 complete control)
Method in brief: as §1

Kochia (Kochia scoparia) [8] = experiment: Test A postemergence; conditions: postemergence, 0 to 100 scale (0 no effect, 100 complete control)
Method in brief: as §1

[9] = tested on: giant foxtail (Setaria faberii); experiment: Test A postemergence; conditions: postemergence, 0 to 100 scale (0 no effect, 100 complete control)
Method in brief: as §1

[10] = tested on: ragweed (common ragweed, Ambrosia elatior); experiment: Test A postemergence; conditions: postemergence, 0 to 100 scale (0 no effect, 100 complete control)
Method in brief: as §1

[11] = tested on: Galium (catchweed bedstraw, Galium aparine); experiment: Test A postemergence; conditions: postemergence, 0 to 100 scale (0 no effect, 100 complete control)
Method in brief: as §1

[12] = tested on: pigweed (Amaranthus retroflexus); experiment: Test A postemergence; conditions: postemergence, 0 to 100 scale (0 no effect, 100 complete control)
Method in brief: as §1

[13] = tested on: blackgrass (Alopecurus myosuroides); experiment: Test A postemergence; conditions: postemergence, 0 to 100 scale (0 no effect, 100 complete control)
Method in brief: as §1

[14] = tested on: barnyardgrass (Echinochloa crus-galli); experiment: Test A postemergence; conditions: postemergence, 0 to 100 scale (0 no effect, 100 complete control)
Method in brief: as §1

[15] = tested on: ryegrass, Italian (Italian ryegrass, Lolium multiflorum); experiment: Test A postemergence; conditions: postemergence, 0 to 100 scale (0 no effect, 100 complete control)
Method in brief: as §1

[16] = tested on: sedge, umbrella (small-flower umbrella sedge, Cyperus difformis); experiment: Test B flooded paddy test; conditions: Flood, 250 g ai/ha; 0 to 100 scale where 0 is no effect and 100 is complete control; 13 to 15 d
Method in brief: (§2)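 Visual ratings (0 none to 100 complete control) are relative to untreated plants, taken 13–15 d after treatment in a greenhouse. Test material went straight into floodwater standing 3 cm above the soil, kept constant, on plants at the 2-leaf stage.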

[17] = tested on: ducksalad (Heteranthera limosa); experiment: Test B flooded paddy test; conditions: Flood, 250 g ai/ha; 0 to 100 scale where 0 is no effect and 100 is complete control; 13 to 15 d
Method in brief: as §2

[18] = tested on: barnyardgrass (Echinochloa crus-galli); experiment: Test B flooded paddy test; conditions: Flood, 250 g ai/ha; 0 to 100 scale where 0 is no effect and 100 is complete control; 13 to 15 d
Method in brief: as §2

rice (Oryra sativa) = experiment: Test B flooded paddy test; conditions: Flood, 250 g ai/ha; 0 to 100 scale where 0 is no effect and 100 is complete control; 13 to 15 d
Method in brief: as §2

[19] = 125 g ai/ha, Preemergence, visual injury after approximately 10 d, 0 to 100 scale where 0 is no effect and 100 is complete control
[20] = 500 g ai/ha, preemergence, 0 to 100 scale, 0 = no effect, 100 = complete control
[21] = 125 g ai/ha, visual rating after approx. 10 d
[22] = 500 g ai/ha, visual injury, approx. 10 d

Compound: CC(C)Oc1cccc(C2CN(C)C(=O)C2C(=O)Nc2ccccc2S(C)(=O)=O)c1 (stereo not drawn) [Compound 653]
- Plant response rating, Kochia (Kochia (Kochia scoparia) [1]; [19]): 0
- Plant response rating, Kochia (Kochia (Kochia scoparia) [1]; [20]): 70
- Plant response rating, Foxtail, Giant [2, 19]: 90
- Plant response rating, Foxtail, Giant [2, 20]: 100
- Plant response rating, Ragweed [3, 19]: 50
- Plant response rating, Ragweed [3, 20]: 80
- Plant response rating, Pigweed [4, 19]: 70
- Plant response rating, Pigweed [4, 20]: 90
- Plant response rating, Barnyardgrass [5, 19]: 90
- Plant response rating, Barnyardgrass [5, 20]: 90
- Plant response rating, Ryegrass, Italian [6, 19]: 70
- Plant response rating, Ryegrass, Italian [6, 20]: 70
- Plant response rating, Corn (corn (Zea mays); [21]): 0
- Plant response rating, Corn (corn (Zea mays); [22]): 30
- Plant response rating, Wheat [7, 21]: 30
- Plant response rating, Wheat [7, 22]: 60
- Plant response rating, Kochia (Kochia (Kochia scoparia) [8]; [21]): 0
- Plant response rating, Kochia (Kochia (Kochia scoparia) [8]; [22]): 0
- Plant response rating, Foxtail, Giant [9, 21]: 60
- Plant response rating, Foxtail, Giant [9, 22]: 90
- Plant response rating, Ragweed [10, 21]: 0
- Plant response rating, Ragweed [10, 22]: 0
- Plant response rating, Galium [11, 21]: 40
- Plant response rating, Galium [11, 22]: 50
- Plant response rating, Pigweed [12, 21]: 0
- Plant response rating, Pigweed [12, 22]: 0
- Plant response rating, Blackgrass [13, 21]: 50
- Plant response rating, Blackgrass [13, 22]: 70
- Plant response rating, Barnyardgrass [14, 21]: 60
- Plant response rating, Barnyardgrass [14, 22]: 90
- Plant response rating, Ryegrass, Italian [15, 21]: 40
- Plant response rating, Ryegrass, Italian [15, 22]: 60
- Plant response rating, Sedge, Umbrella [16]: 0
- Plant response rating, Ducksalad [17]: 40
- Plant response rating, Barnyardgrass [18]: 30
- Plant response rating, Rice (rice (Oryra sativa)): 0

Compound: Cc1ccc(C2CN(C)C(=O)C2C(=O)Nc2ccccc2S(C)(=O)=O)cc1 (stereo not drawn) [Compound 663]
- Plant response rating, Kochia (Kochia (Kochia scoparia) [1]; [19]): 70
- Plant response rating, Kochia (Kochia (Kochia scoparia) [1]; [20]): 80
- Plant response rating, Foxtail, Giant [2, 19]: 90
- Plant response rating, Foxtail, Giant [2, 20]: 100
- Plant response rating, Ragweed [3, 19]: 30
- Plant response rating, Ragweed [3, 20]: 70
- Plant response rating, Pigweed [4, 19]: 30
- Plant response rating, Pigweed [4, 20]: 70
- Plant response rating, Barnyardgrass [5, 19]: 90
- Plant response rating, Barnyardgrass [5, 20]: 100
- Plant response rating, Ryegrass, Italian [6, 19]: 30
- Plant response rating, Ryegrass, Italian [6, 20]: 90
- Plant response rating, Corn (corn (Zea mays); [21]): 30
- Plant response rating, Corn (corn (Zea mays); [22]): 80
- Plant response rating, Wheat [7, 21]: 50
- Plant response rating, Wheat [7, 22]: 70
- Plant response rating, Kochia (Kochia (Kochia scoparia) [8]; [21]): 20
- Plant response rating, Kochia (Kochia (Kochia scoparia) [8]; [22]): 60
- Plant response rating, Foxtail, Giant [9, 21]: 90
- Plant response rating, Foxtail, Giant [9, 22]: 90
- Plant response rating, Ragweed [10, 21]: 30
- Plant response rating, Ragweed [10, 22]: 40
- Plant response rating, Galium [11, 21]: 50
- Plant response rating, Galium [11, 22]: 60
- Plant response rating, Pigweed [12, 21]: 0
- Plant response rating, Pigweed [12, 22]: 20
- Plant response rating, Blackgrass [13, 21]: 60
- Plant response rating, Blackgrass [13, 22]: 70
- Plant response rating, Barnyardgrass [14, 21]: 90
- Plant response rating, Barnyardgrass [14, 22]: 90
- Plant response rating, Ryegrass, Italian [15, 21]: 40
- Plant response rating, Ryegrass, Italian [15, 22]: 70
- Plant response rating, Sedge, Umbrella [16]: 0
- Plant response rating, Ducksalad [17]: 98
- Plant response rating, Barnyardgrass [18]: 70
- Plant response rating, Rice (rice (Oryra sativa)): 0

Compound: Cc1ccc(C2CN(C)C(=O)C2C(=O)Nc2ccccc2C(F)(F)F)cc1 (stereo not drawn) [Compound 665]
- Plant response rating, Kochia (Kochia (Kochia scoparia) [1]; [19]): 60
- Plant response rating, Kochia (Kochia (Kochia scoparia) [1]; [20]): 70
- Plant response rating, Foxtail, Giant [2, 19]: 100
- Plant response rating, Foxtail, Giant [2, 20]: 100
- Plant response rating, Ragweed [3, 19]: 20
- Plant response rating, Ragweed [3, 20]: 90
- Plant response rating, Pigweed [4, 19]: 30
- Plant response rating, Pigweed [4, 20]: 30
- Plant response rating, Barnyardgrass [5, 19]: 90
- Plant response rating, Barnyardgrass [5, 20]: 90
- Plant response rating, Ryegrass, Italian [6, 19]: 20
- Plant response rating, Ryegrass, Italian [6, 20]: 50
- Plant response rating, Corn (corn (Zea mays); [21]): 40
- Plant response rating, Corn (corn (Zea mays); [22]): 70
- Plant response rating, Wheat [7, 21]: 30
- Plant response rating, Wheat [7, 22]: 70
- Plant response rating, Kochia (Kochia (Kochia scoparia) [8]; [21]): 0
- Plant response rating, Kochia (Kochia (Kochia scoparia) [8]; [22]): 50
- Plant response rating, Foxtail, Giant [9, 21]: 90
- Plant response rating, Foxtail, Giant [9, 22]: 90
- Plant response rating, Ragweed [10, 21]: 0
- Plant response rating, Ragweed [10, 22]: 30
- Plant response rating, Galium [11, 21]: 50
- Plant response rating, Galium [11, 22]: 50
- Plant response rating, Pigweed [12, 21]: 0
- Plant response rating, Pigweed [12, 22]: 20
- Plant response rating, Blackgrass [13, 21]: 40
- Plant response rating, Blackgrass [13, 22]: 70
- Plant response rating, Barnyardgrass [14, 21]: 90
- Plant response rating, Barnyardgrass [14, 22]: 90
- Plant response rating, Ryegrass, Italian [15, 21]: 30
- Plant response rating, Ryegrass, Italian [15, 22]: 80
- Plant response rating, Sedge, Umbrella [16]: 0
- Plant response rating, Ducksalad [17]: 90
- Plant response rating, Barnyardgrass [18]: 70
- Plant response rating, Rice (rice (Oryra sativa)): 25
